Reference: patent publication US20250171452A1 (Viscient Bio, Inc., priority 2022, published 2025)
Where two headings read alike, the source gives them in different places.

Assays:
IDO2 = IDO2 (Homo sapiens (Human), UniProt Q6ZQW0); assay: Cellular IDO2 assay, doxycycline and 5-methoxy-L-tryptophan medium, colorimetric; format: cell-based
Protocol: IDO2 inhibition at the cellular level was evaluated in vitro using the following procedure.
Using cell culture medium, the volume of the suspension was adjusted to achieve a cell concentration of 20,000 cells/well (90 uL/well).
5-Methoxy-L-tryptophan powder was dissolved in the culture medium to a concentration of 10 mM, then filtered and sterilized with a 0.22 um filter. Doxycycline powder was dissolved in ddH2O to a concentration of 100 ug/ml, then filtered and sterilized with a 0.22 um filter. 5-aminolevulinic acid powder was dissolved in ddH2O to a concentration of 400 mM, then filtered and sterilized with a 0.22 um filter. A 2× Assay medium was then by diluting the doxycycline (from 100 ug/ml to 2 ug/ml) and 5-Methoxy-L-tryptophan (from 10 mM to 5 mM) in culture medium. The 5-aminolevulinic acid solution was also added to the solution (diluting the concentration from 400 mM to 2 mM) to get a 2× working solution.
After incubation, plates and reagents were allows to equilibrate to room temperature. […] Trichloroacetic acid powder was dissolved in ddH2O to prepare 6.1N trichloroacetic acid. […] The plates were incubated at 55° C. for 40 minutes, and then centrifuged for 10 min at 2500 rpm. […] Measurement of the signal was performed using Envision at 480 nm. Throughout the foregoing process, care was taken to prevent exposure to light.

[1] = target: Indoleamine 2,3-dioxygenase 1 (IDO1) (Homo sapiens (Human), UniProt P14902); assay: Cellular IDO1 assay: kynurenine production in IFN-γ-stimulated HeLa cells, colorimetric
Indoleamine 2,3-dioxygenase 1 (IDO1), sequence (P14902 whole entry): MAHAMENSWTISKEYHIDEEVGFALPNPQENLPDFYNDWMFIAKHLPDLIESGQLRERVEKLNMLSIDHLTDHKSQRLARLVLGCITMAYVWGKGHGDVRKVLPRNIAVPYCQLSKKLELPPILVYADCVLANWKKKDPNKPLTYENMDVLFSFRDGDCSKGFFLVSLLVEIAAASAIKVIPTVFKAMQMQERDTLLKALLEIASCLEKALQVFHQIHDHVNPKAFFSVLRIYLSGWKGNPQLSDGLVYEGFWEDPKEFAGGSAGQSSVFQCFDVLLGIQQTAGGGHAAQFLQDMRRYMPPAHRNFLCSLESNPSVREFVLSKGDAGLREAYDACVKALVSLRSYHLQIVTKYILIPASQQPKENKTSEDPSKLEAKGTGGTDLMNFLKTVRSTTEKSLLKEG

[2] = cellular level, 72 h incubation, signal at 480 nm

IDO2, sequence (Q6ZQW0 whole entry, species assumed): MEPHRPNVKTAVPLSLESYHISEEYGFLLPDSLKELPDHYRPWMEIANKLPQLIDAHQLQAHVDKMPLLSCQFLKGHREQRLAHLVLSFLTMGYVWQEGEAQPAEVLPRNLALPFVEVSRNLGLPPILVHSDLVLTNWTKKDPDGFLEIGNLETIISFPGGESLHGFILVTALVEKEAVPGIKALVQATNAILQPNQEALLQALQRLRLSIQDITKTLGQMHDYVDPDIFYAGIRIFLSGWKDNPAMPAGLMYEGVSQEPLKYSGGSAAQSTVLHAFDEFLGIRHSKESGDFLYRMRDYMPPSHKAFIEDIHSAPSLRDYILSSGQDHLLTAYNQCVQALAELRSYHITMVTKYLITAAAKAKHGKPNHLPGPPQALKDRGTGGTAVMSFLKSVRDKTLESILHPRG

O=C1c2cc(Br)ccc2-n2c1nc1cc(F)ccc1c2=O [Compound 18, 8-Bromo-3-fluoroindolo[2,1-b]quinazoline-6,12-dione]
IC50 (IDO2; [2]): 50 to 500 nM | IC50 [1]: > 500 nM

NCCNC(=O)c1ccc2c(c1)C(=O)c1nc3cc(Cl)cc(Cl)c3c(=O)n1-2 [Compound 19, N-(2-Aminoethyl)-1,3-dichloro-6,12-dioxo-6,12-dihydroindolo[2,1-b]quinazoline-8-carboxamide]
IC50 (IDO2; [2]): > 500 nM | IC50 [1]: > 500 nM

CNC(=O)c1ccc2c(c1)C(=O)c1nc3cc(Cl)cc(Cl)c3c(=O)n1-2 [Compound 20, 1,3-Dichloro-N-methyl-6,12-dioxo-6,12-dihydroindolo[2,1-b]quinazoline-8-carboxamide]
IC50 (IDO2; [2]): 50 to 500 nM | IC50 [1]: 50 to 500 nM

O=[N+]([O-])c1ccc2c(c1)C(O)C1Nc3cc(F)ccc3CN21 (centres unmarked) [Compound 21, 3-Fluoro-8-nitro-5H,5aH,6H,12H-indolo[2,1-b]quinazolin-6-ol]
IC50 (IDO2; [2]): < 50 nM | IC50 [1]: < 50 nM

O=C(O)c1ccc2c(c1)C(=O)c1nc3cc(Cl)cc(Cl)c3c(=O)n1-2 [Compound 22, 1,3-Dichloro-6,12-dioxoindolo[2,1-b]quinazoline-8-carboxylic Acid]
IC50 (IDO2; [2]): > 500 nM | IC50 [1]: > 500 nM

NC(=O)c1ccc2c(c1)C(=O)c1nc3cc(Cl)cc(Cl)c3c(=O)n1-2 [Compound 23, 1,3-Dichloro-6,12-dioxoindolo[2,1-b]quinazoline-8-carboxamide]
IC50 (IDO2; [2]): 50 to 500 nM | IC50 [1]: 50 to 500 nM

CN(C)C(=O)c1ccc2c(c1)C(=O)c1nc3cc(Cl)cc(Cl)c3c(=O)n1-2 [Compound 24, 1,3-Dichloro-N,N-dimethyl-6,12-dioxo-6,12-dihydroindolo[2,1-b]quinazoline-8-carboxamide]
IC50 (IDO2; [2]): 50 to 500 nM | IC50 [1]: 50 to 500 nM

O=C1c2cc(C(=O)N3CCNCC3)ccc2-n2c1nc1cc(Cl)cc(Cl)c1c2=O [Compound 25, 1,3-dichloro-8-(piperazine-1-carbonyl)indolo[2,1-b]quinazoline-6,12-dione]
IC50 (IDO2; [2]): 50 to 500 nM | IC50 [1]: 50 to 500 nM

CC(C)(C)OC(=O)N1CCN(C(=O)c2ccc3c(c2)C(=O)c2nc4cc(Cl)cc(Cl)c4c(=O)n2-3)CC1 [Compound 26, tert-Butyl 4-(1,3-dichloro-6,12-dioxo-6,12-dihydroindolo[2,1-b]quinazoline-8-carbonyl)piperazine-1-carboxylate]
IC50 (IDO2; [2]): 50 to 500 nM | IC50 [1]: > 500 nM

NS(=O)(=O)c1ccc2c(c1)C(=O)c1nc3cc(F)ccc3c(=O)n1-2 [Compound 27]
IC50 (IDO2; [2]): < 50 nM | IC50 [1]: 50 to 500 nM

O=C1c2cc(SCc3ccccc3)ccc2-n2c1nc1cc(F)ccc1c2=O [Compound 28]
IC50 (IDO2; [2]): < 50 nM | IC50 [1]: 50 to 500 nM

NS(=O)(=O)NCCNC(=O)c1ccc2c(c1)C(=O)c1nc3cc(Cl)cc(Cl)c3c(=O)n1-2 [Compound 29, 1,3-Dichloro-6,12-dioxo-N-(2-(sulfamoylamino)ethyl)-6,12-dihydroindolo[2,1-b]quinazoline-8-carboxamide]
IC50 (IDO2; [2]): > 500 nM | IC50 [1]: > 500 nM

Cc1c(F)ccc2c(=O)n3c(nc12)C(=O)c1cc([N+](=O)[O-])ccc1-3 [Compound 30, 3-Fluoro-4-methyl-8-nitroindolo[2,1-b]quinazoline-6,12-dione]
IC50 (IDO2; [2]): < 50 nM | IC50 [1]: 50 to 500 nM

N#Cc1ccc2c(c1)C(O)C1Nc3cc(F)ccc3C(=O)N21 (centres unmarked) [Compound 31, 3-Fluoro-6-hydroxy-12-oxo-5,5a,6,12-tetrahydroindolo[2,1-b]quinazoline-8-carbonitrile]
IC50 (IDO2; [2]): < 50 nM | IC50 [1]: 50 to 500 nM

O=C1c2c(F)cc(F)cc2NC2C(O)c3cc([N+](=O)[O-])ccc3N12 (centres unmarked) [Compound 32, 1,3-Difluoro-6-hydroxy-8-nitro-5a,6-dihydroindolo[2,1-b]quinazolin-12(5H)-one]
IC50 (IDO2; [2]): 50 to 500 nM | IC50 [1]: 50 to 500 nM

O=C1c2cc(S(=O)(=O)Cc3ccccc3)ccc2-n2c1nc1cc(F)ccc1c2=O [Compound 33, 8-(Benzylsulfonyl)-3-fluoroindolo[2,1-b]quinazoline-6,12-dione]
IC50 (IDO2; [2]): < 50 nM | IC50 [1]: < 50 nM

O=c1c2c(F)cc(F)cc2nc2n1-c1ccc([N+](=O)[O-])cc1C2 [Compound 34, 1,3-Difluoro-8-nitroindolo[2,1-b]quinazolin-12(6H)-one]
IC50 (IDO2; [2]): 50 to 500 nM | IC50 [1]: > 500 nM

O=C1c2cc([N+](=O)[O-])ccc2-n2c1nc1c(Br)c(F)ccc1c2=O [Compound 35]
IC50 (IDO2; [2]): < 50 nM | IC50 [1]: 50 to 500 nM

O=C1c2cc([N+](=O)[O-])ccc2-n2c1nc1c(Cl)cccc1c2=O [Compound 36, 4-Chloro-8-nitroindolo[2,1-b]quinazoline-6,12-dione]
IC50 (IDO2; [2]): < 50 nM | IC50 [1]: 50 to 500 nM

O=C1c2cc([N+](=O)[O-])ccc2-n2c1nc1cccc(F)c1c2=O [Compound 37, 1-Fluoro-8-nitroindolo[2,1-b]quinazoline-6,12-dione]
IC50 (IDO2): < 50 nM | IC50 [1]: < 50 nM

Cc1cccc2nc3n(c(=O)c12)-c1ccc([N+](=O)[O-])cc1C3=O [Compound 38, 1-Methyl-8-nitroindolo[2,1-b]quinazoline-6,12-dione]
IC50 (IDO2; [2]): < 50 nM | IC50 [1]: < 50 nM

O=c1c2c(Cl)cccc2[nH]c2cc3cc([N+](=O)[O-])ccc3n12 [Compound 39, 1-Chloro-8-nitroindolo[2,1-b]quinazolin-12(5H)-one]
IC50 (IDO2; [2]): < 50 nM | IC50 [1]: 50 to 500 nM

Cc1ccc(F)c2c(=O)n3c(nc12)C(=O)c1cc([N+](=O)[O-])ccc1-3 [Compound 40]
IC50 (IDO2; [2]): 50 to 500 nM | IC50 [1]: 50 to 500 nM

O=C1c2cc([N+](=O)[O-])ccc2-n2c1nc1c(F)cccc1c2=O [Compound 41, 4-Fluoro-8-nitroindolo[2,1-b]quinazoline-6,12-dione]
IC50 (IDO2; [2]): < 50 nM | IC50 [1]: 50 to 500 nM

Cc1cccc2c(=O)n3c(nc12)C(=O)c1cc([N+](=O)[O-])ccc1-3 [Compound 42, 4-Methyl-8-nitroindolo[2,1-b]quinazoline-6,12-dione]
IC50 (IDO2; [2]): < 50 nM | IC50 [1]: < 50 nM

O=C1c2cc([N+](=O)[O-])ccc2-n2c1nc1c(Br)cccc1c2=O [Compound 43, 4-Bromo-8-nitroindolo[2,1-b]quinazoline-6,12-dione]
IC50 (IDO2; [2]): < 50 nM | IC50 [1]: 50 to 500 nM

O=C1c2cc(F)ccc2-n2c1nc1c(Br)cccc1c2=O [Compound 44, 4-Bromo-8-fluoroindolo[2,1-b]quinazoline-6,12-dione]
IC50 (IDO2; [2]): < 50 nM | IC50 [1]: 50 to 500 nM

O=C1c2cc([N+](=O)[O-])ccc2-n2c1nc1c(Br)cc(F)cc1c2=O [Compound 45, 4-Bromo-2-fluoro-8-nitroindolo[2,1-b]quinazoline-6,12-dione]
IC50 (IDO2; [2]): 50 to 500 nM | IC50 [1]: 50 to 500 nM

N#Cc1ccc2c(c1)C(=O)c1nc3c(Br)cccc3c(=O)n1-2 [Compound 46, 4-bromo-6,12-dioxo-6,12-dihydroindolo[2,1-b]quinazoline-8-carbonitrile]
IC50 (IDO2; [2]): < 50 nM | IC50 [1]: 50 to 500 nM

O=C1c2cc([N+](=O)[O-])ccc2-n2c1nc1c(Br)cc(Cl)cc1c2=O [Compound 47, 4-Bromo-2-chloro-8-nitroindolo[2,1-b]quinazoline-6,12-dione]
IC50 (IDO2; [2]): 50 to 500 nM | IC50 [1]: > 500 nM

Cc1cc(C)c2nc3n(c(=O)c2c1)-c1ccc([N+](=O)[O-])cc1C3=O [Compound 48, 2,4-Dimethyl-8-nitroindolo[2,1-b]quinazoline-6,12-dione]
IC50 (IDO2; [2]): < 50 nM | IC50 [1]: < 50 nM

Cc1cc(F)cc2c(=O)n3c(nc12)C(=O)c1cc([N+](=O)[O-])ccc1-3 [Compound 49, 2-Fluoro-4-methyl-8-nitroindolo[2,1-b]quinazoline-6,12-dione]
IC50 (IDO2; [2]): < 50 nM | IC50 [1]: 50 to 500 nM

O=C1c2cc([N+](=O)[O-])ccc2-n2c1nc1c(Br)c(Cl)ccc1c2=O [Compound 50, 4-Bromo-3-chloro-8-nitroindolo[2,1-b]quinazoline-6,12-dione]
IC50 (IDO2; [2]): 50 to 500 nM | IC50 [1]: > 500 nM

O=C1c2cc([N+](=O)[O-])ccc2-n2c1nc1cnc(O)cc1c2=O [Compound 51, 3-Hydroxy-9-nitropyrido[3′,4′:4,5]pyrimido[1,2-a]indole-5,11-dione]
IC50 (IDO2; [2]): 50 to 500 nM | IC50 [1]: > 500 nM
